The structures appear in SMILES notation.

The source of these data is patent US10005788B2, “Bicyclic fused pyrimidine compounds as TAM inhibitors” (Incyte Corporation, priority 2015, dated 2018).

Sequence of JAK2 (O60674 whole entry, species assumed): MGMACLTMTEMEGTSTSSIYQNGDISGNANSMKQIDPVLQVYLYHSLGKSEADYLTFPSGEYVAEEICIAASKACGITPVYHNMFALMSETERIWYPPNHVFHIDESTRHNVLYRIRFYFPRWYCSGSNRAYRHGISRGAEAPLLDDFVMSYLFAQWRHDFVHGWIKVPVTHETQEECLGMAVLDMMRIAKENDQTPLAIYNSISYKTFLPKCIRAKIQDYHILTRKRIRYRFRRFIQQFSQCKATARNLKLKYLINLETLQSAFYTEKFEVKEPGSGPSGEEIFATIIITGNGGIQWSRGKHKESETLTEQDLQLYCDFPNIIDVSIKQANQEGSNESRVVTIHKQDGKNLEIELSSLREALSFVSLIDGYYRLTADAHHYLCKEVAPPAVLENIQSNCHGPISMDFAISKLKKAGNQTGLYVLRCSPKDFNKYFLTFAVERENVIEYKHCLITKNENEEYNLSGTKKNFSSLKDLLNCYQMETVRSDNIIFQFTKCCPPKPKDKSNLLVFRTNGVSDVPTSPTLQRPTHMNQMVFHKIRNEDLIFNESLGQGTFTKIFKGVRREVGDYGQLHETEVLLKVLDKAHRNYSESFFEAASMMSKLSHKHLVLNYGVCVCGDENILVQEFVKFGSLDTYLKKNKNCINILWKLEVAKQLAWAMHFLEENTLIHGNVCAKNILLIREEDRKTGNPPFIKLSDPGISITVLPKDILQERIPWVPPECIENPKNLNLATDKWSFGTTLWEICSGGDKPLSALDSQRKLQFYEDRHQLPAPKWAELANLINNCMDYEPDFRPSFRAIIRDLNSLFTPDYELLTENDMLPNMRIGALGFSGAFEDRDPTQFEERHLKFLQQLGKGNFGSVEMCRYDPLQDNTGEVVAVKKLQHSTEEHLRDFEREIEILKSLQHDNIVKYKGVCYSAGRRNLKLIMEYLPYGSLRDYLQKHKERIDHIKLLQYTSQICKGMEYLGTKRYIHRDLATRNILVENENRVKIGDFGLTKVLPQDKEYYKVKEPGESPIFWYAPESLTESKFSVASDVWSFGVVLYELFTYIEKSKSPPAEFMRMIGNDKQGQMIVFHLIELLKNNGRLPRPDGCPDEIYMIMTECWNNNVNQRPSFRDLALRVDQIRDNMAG

In one assay the target is c-Mer (Homo sapiens (Human), UniProt Q12866). Put plainly: TAM Enzymatic Assay (HTRF), c-Mer. Format: biochemical. Particulars: 0.0625 nM c-Mer. On the technique in general: TR-FRET usually uses a lanthanide donor and a delayed reading to cut background.
Sequence of c-Mer (Q12866 21-999): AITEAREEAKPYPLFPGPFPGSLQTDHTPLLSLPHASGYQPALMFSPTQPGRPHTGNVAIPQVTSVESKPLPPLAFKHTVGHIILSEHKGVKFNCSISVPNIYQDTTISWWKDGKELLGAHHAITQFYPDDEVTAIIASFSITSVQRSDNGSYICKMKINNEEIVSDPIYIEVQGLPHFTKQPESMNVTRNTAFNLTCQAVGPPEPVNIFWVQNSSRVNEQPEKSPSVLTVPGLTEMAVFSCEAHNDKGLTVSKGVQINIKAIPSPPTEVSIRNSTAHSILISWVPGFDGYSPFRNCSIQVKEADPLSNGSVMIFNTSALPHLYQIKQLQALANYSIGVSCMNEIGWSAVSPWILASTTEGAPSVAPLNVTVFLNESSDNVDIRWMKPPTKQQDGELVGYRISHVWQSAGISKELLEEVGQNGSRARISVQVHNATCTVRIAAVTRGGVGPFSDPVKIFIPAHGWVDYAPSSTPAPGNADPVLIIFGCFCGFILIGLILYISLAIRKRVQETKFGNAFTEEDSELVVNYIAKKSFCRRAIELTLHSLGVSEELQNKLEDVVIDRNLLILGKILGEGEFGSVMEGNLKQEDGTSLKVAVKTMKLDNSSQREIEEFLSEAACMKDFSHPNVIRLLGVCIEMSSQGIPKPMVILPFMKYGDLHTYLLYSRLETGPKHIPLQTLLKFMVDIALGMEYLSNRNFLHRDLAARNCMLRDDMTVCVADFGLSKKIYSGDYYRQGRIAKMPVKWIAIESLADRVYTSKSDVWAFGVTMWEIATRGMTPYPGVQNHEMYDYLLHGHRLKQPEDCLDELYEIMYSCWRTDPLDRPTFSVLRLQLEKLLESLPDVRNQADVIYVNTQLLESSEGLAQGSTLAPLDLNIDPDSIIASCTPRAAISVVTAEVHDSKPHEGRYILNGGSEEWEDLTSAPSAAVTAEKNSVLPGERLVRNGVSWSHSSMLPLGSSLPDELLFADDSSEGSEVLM
The IC50 is the concentration needed to halve the response being measured. On to `N[C@H]1CC[C@H](Cc2nc(-c3ccc(F)cc3)c3cnc(NCCCc4ccccc4)nn23)CC1` [Example 14, trans-7-((4-Aminocyclohexyl)methyl)-5-(4-fluorophenyl)-N-(3-phenylpropyl)imidazo[5,1-f][1,2,4]triazin-2-amine], for which the IC50 is not above 100 nM.

A further assay deals with Tyro3 (Homo sapiens (Human), UniProt Q06418). Put plainly: TAM Enzymatic Assay (HTRF), Tyro3. Format: biochemical. Particulars: 0.366 nM Tyro3, HTRF.
Sequence of Tyro3 (Q06418 41-890): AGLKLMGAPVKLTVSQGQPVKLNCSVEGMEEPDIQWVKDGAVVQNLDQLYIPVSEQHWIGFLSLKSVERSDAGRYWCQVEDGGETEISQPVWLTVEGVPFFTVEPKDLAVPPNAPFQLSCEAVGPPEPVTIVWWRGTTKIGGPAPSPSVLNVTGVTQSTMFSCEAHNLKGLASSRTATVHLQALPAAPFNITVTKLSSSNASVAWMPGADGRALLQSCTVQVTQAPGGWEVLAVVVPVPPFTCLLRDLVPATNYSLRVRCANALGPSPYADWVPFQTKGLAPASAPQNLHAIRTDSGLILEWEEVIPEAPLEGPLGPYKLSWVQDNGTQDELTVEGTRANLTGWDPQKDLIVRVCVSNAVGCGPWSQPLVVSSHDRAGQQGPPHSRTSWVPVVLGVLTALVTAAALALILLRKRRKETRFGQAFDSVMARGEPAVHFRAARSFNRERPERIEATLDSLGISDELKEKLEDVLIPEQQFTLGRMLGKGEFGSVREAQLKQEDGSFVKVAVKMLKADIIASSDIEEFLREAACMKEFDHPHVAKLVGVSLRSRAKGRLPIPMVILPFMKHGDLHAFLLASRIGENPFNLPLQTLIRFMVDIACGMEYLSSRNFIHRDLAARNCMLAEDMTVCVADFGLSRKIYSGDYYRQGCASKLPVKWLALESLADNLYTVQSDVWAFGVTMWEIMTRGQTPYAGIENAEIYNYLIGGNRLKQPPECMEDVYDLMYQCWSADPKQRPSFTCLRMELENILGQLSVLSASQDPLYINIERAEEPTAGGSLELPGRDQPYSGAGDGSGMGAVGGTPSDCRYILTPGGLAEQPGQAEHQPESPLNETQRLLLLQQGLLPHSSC
Procedure: The kinase assay buffer contained 50 mM HEPES, pH7.5, 10 mM MgCl2, 1 mM EGTA, 0.01% NP-40 and 2 mM DTT. 0.1 ul test compounds dissolved in DMSO were transferred from compound plates to white 384-well assay plates (Greiner [sequence] plates). […] 4 ul enzyme solution (or assay buffer for the enzyme blank) was added to the appropriate wells in each plate, and then 4 ul/well substrate solution was added to initiate the reaction. The plate was protected from light and incubated at room temperature for 60 min. […] The plate was incubated for 1 h at room temperature, and HTRF (homogenous time resolved fluorescence) signal was measured on a PHERAstar FS plate reader (BMG labtech). Percentage of inhibition was calculated for each concentration and IC50 value was generated from curve fitting with GraphPad Prism software.
Compound `N[C@H]1CC[C@H](Cc2nc(-c3ccc(F)cc3)c3cnc(NCCCc4ccccc4)nn23)CC1` [Example 14, trans-7-((4-Aminocyclohexyl)methyl)-5-(4-fluorophenyl)-N-(3-phenylpropyl)imidazo[5,1-f][1,2,4]triazin-2-amine] came in with a 50% inhibitory concentration (IC50) of more than 1000 nM.

The target of another assay is JAK1 (Homo sapiens (Human), UniProt P23458).
Sequence of JAK1 (P23458 whole entry, species assumed): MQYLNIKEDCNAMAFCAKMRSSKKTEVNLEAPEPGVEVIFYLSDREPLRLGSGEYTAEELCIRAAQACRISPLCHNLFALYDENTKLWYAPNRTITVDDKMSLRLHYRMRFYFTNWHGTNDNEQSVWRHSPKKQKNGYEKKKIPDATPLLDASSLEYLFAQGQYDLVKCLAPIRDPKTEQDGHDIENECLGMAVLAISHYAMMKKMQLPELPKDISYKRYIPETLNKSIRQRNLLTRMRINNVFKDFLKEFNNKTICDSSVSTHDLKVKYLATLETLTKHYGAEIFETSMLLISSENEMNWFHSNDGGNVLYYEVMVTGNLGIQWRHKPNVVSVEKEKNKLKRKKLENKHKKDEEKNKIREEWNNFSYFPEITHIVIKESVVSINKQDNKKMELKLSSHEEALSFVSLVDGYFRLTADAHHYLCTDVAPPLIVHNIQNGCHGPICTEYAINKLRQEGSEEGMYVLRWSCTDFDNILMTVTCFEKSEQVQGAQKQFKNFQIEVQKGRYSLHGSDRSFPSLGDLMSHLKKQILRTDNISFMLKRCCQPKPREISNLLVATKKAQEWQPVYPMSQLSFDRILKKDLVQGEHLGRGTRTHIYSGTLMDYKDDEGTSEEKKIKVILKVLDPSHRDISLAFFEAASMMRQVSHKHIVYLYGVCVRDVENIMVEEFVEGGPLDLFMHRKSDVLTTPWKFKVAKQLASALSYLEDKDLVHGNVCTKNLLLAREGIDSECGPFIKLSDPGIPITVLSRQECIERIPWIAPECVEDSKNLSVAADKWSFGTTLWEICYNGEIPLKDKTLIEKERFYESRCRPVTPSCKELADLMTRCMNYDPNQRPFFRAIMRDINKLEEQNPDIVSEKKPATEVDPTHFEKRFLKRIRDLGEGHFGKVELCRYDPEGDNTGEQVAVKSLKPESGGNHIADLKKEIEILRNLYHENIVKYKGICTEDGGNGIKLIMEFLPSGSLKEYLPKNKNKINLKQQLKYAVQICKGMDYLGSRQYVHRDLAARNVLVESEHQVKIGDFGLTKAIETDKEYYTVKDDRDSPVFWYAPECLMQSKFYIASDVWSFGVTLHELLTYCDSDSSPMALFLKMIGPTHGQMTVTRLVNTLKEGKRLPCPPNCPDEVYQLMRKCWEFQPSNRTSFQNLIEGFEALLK
Experiment: not given
Particulars: 1 mM ATP; cited from earlier work.
Take `CCCCNc1ncc2c(-c3ccc(F)cc3)nc(C[C@H]3CC[C@H](N)CC3)n2n1` [Example 13, trans-7-[(4-Aminocyclohexyl)methyl]-N-butyl-5-(4-fluorophenyl)imidazo[5,1-f][1,2,4]triazin-2-amine]: the 50% inhibitory concentration (IC50) is less than 10 nM.

Turning to `N[C@H]1CC[C@H](Cc2nc(-c3ccc(F)cc3)c3cnc(NCCCc4ccccc4)nn23)CC1` [Example 14, trans-7-((4-Aminocyclohexyl)methyl)-5-(4-fluorophenyl)-N-(3-phenylpropyl)imidazo[5,1-f][1,2,4]triazin-2-amine], the IC50 was less than 10 nM.

Regarding `CCCCNc1ncc2c(-c3ccc(F)cc3)nc(C3CCC(N)CC3)n2n1` (centres unmarked) [Example 15, 7-(4-Aminocyclohexyl)-N-butyl-5-(4-fluorophenyl)imidazo[5,1-f][1,2,4]triazin-2-amine], the 50% inhibitory concentration (IC50) was less than 10 nM.

Another assay addresses JAK2 (Homo sapiens (Human), UniProt O60674).
Experiment: not given
Particulars: ratio of IC50, 1 mM ATP; cited from earlier work.
With `N#CCC(C1CCN(c2cccc(Cl)n2)C1)n1cc(-c2ncnc3[nH]ccc23)cn1` (single isomer, unassigned) [Compound 3, 3-[1-(6-chloropyridin-2-yl)pyrrolidin-3-yl]-3-[4-(7H-pyrrolo[2,3-d]pyrimidin-4-yl)-1H-pyrazol-1-yl]propanenitrile], the JAK2/JAK1 is more than 10.

For the compound `C[C@@H](O)c1nc2cnc3ccsc3c2n1[C@H]1CC[C@H](CC#N)OC1` [Compound 1, ((2R,5S)-5-{2-[(1R)-1-hydroxyethyl]-1H-imidazo[4,5-d]thieno[3,2-b]pyridin-1-yl}tetrahydro-2H-pyran-2-yl)acetonitrile], the JAK2/JAK1 was more than 10.

Turning to `N#CCC(C1CCN(c2nc3cccnc3o2)C1)n1cc(-c2ncnc3[nH]ccc23)cn1` (centres unmarked) [Compound 4, 3-(1-[1,3]oxazolo[5,4-b]pyridin-2-ylpyrrolidin-3-yl)-3-[4-(7H-pyrrolo[2,3-d]pyrimidin-4-yl)-1H-pyrazol-1-yl]propanenitrile], the JAK2/JAK1 is more than 10.

Take `N#CCC(CN1CCN(C(=O)c2ccc(C#N)cc2F)CC1)n1cc(-c2ncnc3[nH]ccc23)cn1` (centres unmarked) [Compound 5]: the JAK2/JAK1 is on record as more than 10.

On to `N#CCC(CN1CCN(C(=O)c2ccc(C#N)cc2F)CC1)n1ccc(-c2ncnc3[nH]ccc23)c1` (centres unmarked) [Compound 6, 4-[(4-{3-cyano-2-[3-(7H-pyrrolo[2,3-d]pyrimidin-4-yl)-1H-pyrrol-1-yl]propyl}piperazin-1-yl)carbonyl]-3-fluorobenzonitrile], for which the JAK2/JAK1 is given as more than 10.

As for `N#CCC1(n2cc(-c3ncnc4[nH]ccc34)cn2)CN(C2CCN(C(=O)c3ccnc(C(F)(F)F)c3F)CC2)C1` [Compound 7, {1-{1-[3-Fluoro-2-(trifluoromethyl)isonicotinoyl]piperidin-4-yl}-3-[4-(7H-pyrrolo[2,3-d]pyrimidin-4-yl)-1H-pyrazol-1-yl]azetidin-3-yl}acetonitrile], the JAK2/JAK1 is more than 10.

As to `N#CCC1(n2cc(-c3ncnc4[nH]ccc34)cn2)CN(C2CCN(C(=O)Nc3ccc(F)cc3C(F)(F)F)CC2)C1` [Compound 8, 4-{3-(Cyanomethyl)-3-[4-(7H-pyrrolo[2,3-d]pyrimidin-4-yl)-1H-pyrazol-1-yl]azetidin-1-yl}-N-[4-fluoro-2-(trifluoromethyl)phenyl]piperidine-1-carboxamide], the JAK2/JAK1 was more than 10.

Take `N#CCC1(n2cc(-c3ncnc4[nH]ccc34)cn2)CN(C2CCN(C(=O)c3ccnc(C(F)(F)F)n3)CC2)C1` [Compound 9, [3-[4-(7H-pyrrolo[2,3-d]pyrimidin-4-yl)-1H-pyrazol-1-yl]-1-(1-{[2-(trifluoromethyl)pyrimidin-4-yl]carbonyl}piperidin-4-yl)azetidin-3-yl]acetonitrile]: the JAK2/JAK1 was more than 10.

In the case of `N#CC[C@]1(n2cc(-c3ncnc4[nH]ccc34)cn2)C[C@H](N2CCN(C(=O)c3ccnc(C(F)(F)F)n3)CC2)C1` [Compound 10, [trans-1-[4-[7H-pyrrolo[2,3-d]pyrimidin-4-yl)-1H-pyrazol-1-yl]-3-(4-{[2-(trifluoromethyl)pyrimidin-4-yl]carbonyl}piperazin-1-yl)cyclobutyl]acetonitrile], the JAK2/JAK1 is on record as more than 10.

For `C[C@H](NC(=O)c1cc(F)c(N2CC(CC#N)(n3cc(-c4ncnc5[nH]ccc45)cn3)C2)cc1F)C(F)(F)F` [Compound 16, 4-{3-(cyanomethyl)-3-[4-(7H-pyrrolo[2,3-d]pyrimidin-4-yl)-1H-pyrazol-1-yl]azetidin-1-yl}-2,5-difluoro-N-[(1S)-2,2,2-trifluoro-1-methylethyl]benzamide], the JAK2/JAK1 was more than 10.

`N#CCC1(n2cc(-c3ncnc4[nH]ccc34)cn2)CN([C@H]2CC[C@@H](Oc3cc(CCO)nc(C(F)(F)F)n3)CC2)C1` [Compound 18, {1-(cis-4-{[6-(2-hydroxyethyl)-2-(trifluoromethyl)pyrimidin-4-yl]oxy}cyclohexyl)-3-[4-(7H-pyrrolo[2,3-d]pyrimidin-4-yl)-1H-pyrazol-1-yl]azetidin-3-yl}acetonitrile]: the JAK2/JAK1 was more than 10.

As to `CCNCc1cc(O[C@H]2CC[C@@H](N3CC(CC#N)(n4cc(-c5ncnc6[nH]ccc56)cn4)C3)CC2)nc(C(F)(F)F)c1` [Compound 19, {1-(cis-4-{[4-[(ethylamino)methyl]-6-(trifluoromethyl)pyridin-2-yl]oxy}cyclohexyl)-3-[4-(7H-pyrrolo[2,3-d]pyrimidin-4-yl)-1H-pyrazol-1-yl]azetidin-3-yl}acetonitrile], the JAK2/JAK1 is recorded as more than 10.

Regarding `CC(C)(O)c1cc(O[C@H]2CC[C@@H](N3CC(CC#N)(n4cc(-c5ncnc6[nH]ccc56)cn4)C3)CC2)nc(C(F)(F)F)c1` [Compound 20, {1-(cis-4-{[4-(1-hydroxy-1-methylethyl)-6-(trifluoromethyl)pyridin-2-yl]oxy}cyclohexyl)-3-[4-(7H-pyrrolo[2,3-d]pyrimidin-4-yl)-1H-pyrazol-1-yl]azetidin-3-yl}acetonitrile], the JAK2/JAK1 was more than 10.

Consider `C[C@@H](CO)NCc1cc(OC2CCN([C@H]3C[C@](CC#N)(n4cc(-c5ncnc6[nH]ccc56)cn4)C3)CC2)nc(C(F)(F)F)c1` [Compound 23, {trans-3-(4-{[4-({[(1S)-2-hydroxy-1-methylethyl]amino}methyl)-6-(trifluoromethyl)pyridin-2-yl]oxy}piperidin-1-yl)-1-[4-(7H-pyrrolo[2,3-d]pyrimidin-4-yl)-1H-pyrazol-1-yl]cyclobutyl}acetonitrile], for which the JAK2/JAK1 is more than 10.

Turning to `C[C@@H](O)CNCc1cc(OC2CCN([C@H]3C[C@](CC#N)(n4cc(-c5ncnc6[nH]ccc56)cn4)C3)CC2)nc(C(F)(F)F)c1` [Compound 24, {trans-3-(4-{[4-({[(2R)-2-hydroxypropyl]amino}methyl)-6-(trifluoromethyl)pyridin-2-yl]oxy}piperidin-1-yl)-1-[4-(7H-pyrrolo[2,3-d]pyrimidin-4-yl)-1H-pyrazol-1-yl]cyclobutyl}acetonitrile], the JAK2/JAK1 was more than 10.

In the case of `C[C@H](O)CNCc1cc(OC2CCN([C@H]3C[C@](CC#N)(n4cc(-c5ncnc6[nH]ccc56)cn4)C3)CC2)nc(C(F)(F)F)c1` [Compound 25, {trans-3-(4-{[4-({[(2S)-2-hydroxypropyl]amino}methyl)-6-(trifluoromethyl)pyridin-2-yl]oxy}piperidin-1-yl)-1-[4-(7H-pyrrolo[2,3-d]pyrimidin-4-yl)-1H-pyrazol-1-yl]cyclobutyl}acetontrile], the JAK2/JAK1 was more than 10.

Take `N#CC[C@]1(n2cc(-c3ncnc4[nH]ccc34)cn2)C[C@H](N2CCC(Oc3cc(CCO)cc(C(F)(F)F)n3)CC2)C1` [Compound 26, {trans-3-(4-{[4-(2-hydroxyethyl)-6-(trifluoromethyl)pyridin-2-yl]oxy}piperidin-1-yl)-1-[4-(7H-pyrrolo[2,3-d]pyrimidin-4-yl)-1H-pyrazol-1-yl]cyclobutyl}acetonitrile]: the JAK2/JAK1 is given as more than 10.

`N[C@H]1CC[C@H](Cc2nc(-c3ccc(F)cc3)c3cnc(NCCCc4ccccc4)nn23)CC1` [Example 14, trans-7-((4-Aminocyclohexyl)methyl)-5-(4-fluorophenyl)-N-(3-phenylpropyl)imidazo[5,1-f][1,2,4]triazin-2-amine]: the JAK2/JAK1 is given as more than 10.
